This passage reports IC50 results from US4902698A, “Benzenesulphonamidopyridyl compounds which are useful as thromboxane A 2” (Smith Kline & French Laboratories Limited, priority 1988, dated 1990).

Molecules are shown by their SMILES.

The target of the test is T1, TXA2 receptors (Homo sapiens, UniProt P21731).
T1 construct: endogenous in cells; host or cells: human platelets
T1 sequence (P21731 1-343): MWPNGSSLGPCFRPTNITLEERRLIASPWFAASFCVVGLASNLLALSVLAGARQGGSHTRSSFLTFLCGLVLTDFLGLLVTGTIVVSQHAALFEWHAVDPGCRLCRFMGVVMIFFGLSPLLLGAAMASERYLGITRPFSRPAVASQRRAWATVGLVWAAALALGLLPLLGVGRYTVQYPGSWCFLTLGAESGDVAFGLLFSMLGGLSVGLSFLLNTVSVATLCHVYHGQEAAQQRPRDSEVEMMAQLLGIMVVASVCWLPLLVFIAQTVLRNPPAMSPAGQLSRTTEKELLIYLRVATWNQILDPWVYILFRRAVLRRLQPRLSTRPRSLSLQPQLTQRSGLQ
In words: human platelet binding assay ([125I]PTA-OH as receptor ligand). Particulars: 50% inhibition of specific [^125 I]PTA-OH binding, human platelets. The method, then: As indicated above, compounds of the formula (I) have biological activity that is indicative of an ability to antagonise TXA2 receptors.
The platelet binding assay used was essentially the method described by Mais et al. J. Pharm. Exp. Ther., 1985, 235(3), 729-734 where [^125 I]PTA-OH was used as the receptor ligand.
The IC50 values represent the concentration which produces a 50% inhibition of specific [^125 I]PTA-OH binding.
The compounds of Examples 1 and 5 were tested in the human platelet binding assay.
One may read the IC50 as the concentration that inhibits the measured activity by half. Regarding `O=C(O)CCCc1ccc(NS(=O)(=O)c2ccccc2)cn1` [Example 1, 4-(5-Benzenesulphonamidopyrid-2-yl)butanoic acid], the IC50 is 1.3 µM.

Take `O=C(O)CCCc1ccc(NS(=O)(=O)c2ccc(Cl)cc2)cn1` [Example 2, 4-[5-(4-Chlorobenzenesulphonamido)pyrid-2-yl]-butanoic acid]: the IC50 came to 0.36 µM.

On to `Cc1cc(NS(=O)(=O)c2ccccc2)cnc1CCCC(=O)O` [Example 3, 4-(5-Benzenesulphonamido-3-methylpyrid-2-yl)butanoic acid], for which the IC50 amounted to 2.6 µM. This IC50 is about 7.2-fold higher than that of the compound before.

Turning to `O=C(O)CCCc1ncccc1NS(=O)(=O)c1ccccc1` [Example 4, 4-(3-Benzenesulphonamidopyrid-2-yl)butanoic acid], the IC50 worked out at 102 µM. Against the preceding compound, the IC50 is about 39-fold higher.

`O=C(O)CCCc1ccc(NS(=O)(=O)c2cccc(Cl)c2)cn1` [Example 5, 4-[5-(3-Chlorobenzenesulphonamido)pyrid-2-yl]butanoic acid] had a half-maximal inhibitory concentration (IC50) of 1.2 µM.

Take `O=C(O)CCCCc1ccc(NS(=O)(=O)c2ccc(Cl)cc2)cn1` [Example 6, 5-[5-(4-Chlorobenzenesulphonamido)pyrid-2-yl]pentanoic acid]: the IC50 was 1 µM. The IC50 values of the last two compounds are within 1.5-fold of each other.

Consider `O=C(O)CCCCc1ccc(NS(=O)(=O)c2ccccc2)cn1` [Example 7, 5-[5-(Benzenesulphonamido)pyrid-2-yl]pentanoic acid], for which the IC50 amounted to 4 µM. Against the preceding compound, the IC50 is about 4-fold higher.

Consider `O=C(O)CCc1ccc(NS(=O)(=O)c2ccc(Cl)cc2)cn1` [Example 8, 3-[5-(4-Chlorobenzenesulphonamido)pyrid-2-yl]propionic acid], for which the IC50 turned out to be 251 µM.

`O=C(O)CCCc1ccc(S(=O)(=O)Nc2ccc(Cl)cc2)cn1` [Example 9, 4-[5-(4-Chlorophenylsulphamoyl)pyrid-2-yl]-butanoic acid] yielded a 50% inhibitory concentration (IC50) of 21 µM.

The compound `O=C(O)CCCc1ccc(S(=O)(=O)Nc2ccccc2)cn1` [Example 10, 4-[5-(Phenylsulphamoyl)pyrid-2-yl)butanoic acid] had an IC50 of 28 µM.

On to `COc1ccc(S(=O)(=O)Nc2ccc(CCCC(=O)O)nc2)cc1` [Example 11, 4-[5-(4-Methoxybenzenesulphonamido)pyrid-2-yl]butanoic acid], for which the 50% inhibitory concentration (IC50) stood at 5.2 µM.

The compound `O=C(O)CCCc1ccc(NS(=O)(=O)c2cccc(C(F)(F)F)c2)cn1` [Example 12, 4-[5-(3-Trifluoromethylbenzenesulphonamido)-pyrid-2-yl]butanoic acid] returned a concentration for half-maximal inhibition (IC50) of 16 µM.

With `O=C(O)CCCc1ccc(NS(=O)(=O)c2ccc(Br)cc2)cn1` [Example 13, 4-[5-(4-Bromobenzenesulphonamido)pyrid-2-yl]butanoic acid], the IC50 amounted to 0.2 µM.

The compound `Cc1ccc(S(=O)(=O)Nc2ccc(CCCC(=O)O)nc2)cc1` [Example 14, 4-[5-(4-Methylbenzenesulphonamido)pyrid-2-yl]butanoic acid] had an IC50 of 0.6 µM.

On to `O=C(O)CCCc1ccc(NS(=O)(=O)c2ccc(Cl)c(Cl)c2)cn1` [Example 15, 4-[5-(3,4-Dichlorobenzenesulphonamido)pyrid-2-yl]butanoic acid], for which the IC50 is 2.1 µM.
